Results from patent EP1973398B1, “USE OF INOSITOL-TRIPYROPHOSPHATE IN TREATING TUMORS MEDIATED BY ANGIOGENESIS” (NormOxys, Inc., priority 2006, dated 2007).

Columns and labels:
[1] = test system: murine circulating red blood cells; assay: Right shift of the O2-hemoglobin dissociation curve in mice, ITPP orally in drinking water; assay type: in vivo, C57BL/6 mice
Protocol: ITPP was dissolved in drinking water at a 20g/L-concentration (= 27mM, pH ~7.0.) and offered for drinking ad libitum.
Twelve (12) C57BL/6 mice were fed the ITPP-solution (20g/L-concentration = 27mM, pH -7.0) for 4 days (up to 25 ml per 24 hrs). Three (3) control mice drank pure water, and four (4) control mice a solution of myoinositol hexaphosphate (IHP) (same concentration and pH as ITPP). Blood was collected from all mice on day 0 (before treatment started), and on days 1, 2, 4, 6, 7, 8, 10, 11 and 12 (after treatment had started), in order to measure P50 values.

whole blood = assay: In vitro P50 shift, whole blood / red blood cells incubated with ITPP; assay type: cell-based, murine
[2] = Tolerability, serum ions and blood counts in mice after oral ITPP; assay type: in vivo, C57BL/6 mice
Protocol: Three (3) control mice drank pure water, and four (4) control mice a solution of myoinositol hexaphosphate (IHP) (same concentration and pH as ITPP).
Figure 3 contains the mean values and SD for the serum concentration of sodium, potassium and calcium obtained on day 0, 7 and 11 after start drinking ITPP (4 mice), IHP (3 mice) or water (3 mice).
Blood counts were measured from all mice, on day 0, 7 and 11.

[3] = Tolerability and serum ions in mice after intraperitoneal ITPP; assay type: in vivo
Protocol: (§1) When ITPP (pH 7, 200µl) was injected intraperitoneally in mice, the P50 values of circulating red blood cells were shifted up to 23%. […] The level of ions, such as sodium, potassium and calcium were normal after ip injection. Six (6) mice were each injected intraperitoneally with 45-150 mM (= 0.17-0.88 g/kg body weight) of ITPP.

[4] = test system: circulating red blood cells; assay: Right shift of the ODC in mice, ITPP injected intraperitoneally; assay type: in vivo; conditions: intraperitoneal, pH 7, 200µl, 45-150 mM (0.17-0.88 g/kg body weight)
Protocol: as §1

murine hemoglobin = murine hemoglobin (Mus musculus, UniProt P01942+P02088); assay: In vitro P50 shift, mixtures of hemoglobin and ITPP, HEMOX analyzer; assay type: biochemical; conditions: with murine hemoglobin
Chain of murine hemoglobin (P01942 2-142 limits assumed): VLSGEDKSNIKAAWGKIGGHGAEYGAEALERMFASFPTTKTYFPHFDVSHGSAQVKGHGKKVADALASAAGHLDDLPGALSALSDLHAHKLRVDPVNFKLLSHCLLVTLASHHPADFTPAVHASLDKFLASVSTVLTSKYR
Chain of murine hemoglobin (P02088 2-147 limits assumed): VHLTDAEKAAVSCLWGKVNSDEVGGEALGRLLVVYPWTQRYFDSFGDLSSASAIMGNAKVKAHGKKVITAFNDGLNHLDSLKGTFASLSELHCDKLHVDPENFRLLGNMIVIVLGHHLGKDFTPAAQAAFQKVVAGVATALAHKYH
Protocol: ITPP was tested for its ability to induce a decrease of the O2-affinity of hemoglobin measured as a shift of the P50 value (P50 at 50% saturation of hemoglobin). With murine hemoglobin and whole blood, P50 shifts to higher PO2 of up to 250% with hemoglobin and up to 40% with whole blood were observed.
For the in vitro experiments ITPP was dissolved in deionized water, pH was adjusted at pH 7 and, for incubation with whole blood, the osmolality of the ITPP solutions was adjusted with glucose to 270-297 mOsM. Mixtures of hemoglobin and ITPP were measured with a HEMOX analyzer (PD Marketing, London) immediately. Red blood cells were incubated with ITPP for 1 hour at 37[deg.]C. Following incubation, the cells were washed 3 times with Bis-Tris-buffer (PH=7.0) and then used for P50 measurement.

[5] = Serum ion levels in piglets after intravenous ITPP; assay type: in vivo; conditions: for Ca^2+ conc.: piglet's circulation blood
Protocol: In order to check possible side effects of ITPP the level of calcium in the serum of the injected piglet was determined. A strong drop in the Ca^2+ concentration in the animal's blood immediately after infusion indicated the possibility that ITPP, with 3 dissociated phosphate groups binds Ca^2+, reducing thus its availability as free ion in the blood. One day after infusion the concentration of Ca^2+ in the piglets' blood was restored to the normal value. Table 1: Ca2+ concentration in the piglet's circulation blood
(§2) Based upon this observation, a CaCl2 (equimolar to ITPP) solution was injected with the ITPP solution, so that the dissociated phosphate groups of ITPP were saturated. None of the side effects observed previously occurred. […] The level of the other ions sodium and potassium was unchanged after IV injection of ITPP in piglets.

VEGF mRNA = VEGF mRNA by RT-PCR in Lewis Lung carcinoma tumors of mice drinking ITPP; assay type: in vivo, C57BL/6 mice; conditions: LLC tumors, mice having received ITPP 20g/L orally, day 9, versus controls; quantification of gel assays
Protocol: ITPP, when administered orally, intravenously, or intraperitoneally, inhibits angiogenesis in growing tumors by enhancing PO2 in the forming tumors. […] All animals received then 1x10^6 Lewis Lung carcinoma (LLC) cells, injected in the dorsal cavity. At different time points, the VEGF mRNA were assayed by RT-PCR in the tumors growing in both groups of mice.
There was a difference in the level of mRNA of the VEGF gene in both groups. […] The RT-PCR agarose gel assay of VEGF mRNAs from tumor tissue taken from 2 mice each on day 15 after inoculation of LLC cells (track 1: controls, track 2: ITPP treated animals) and day 30 after inoculation (track 3: control animals, track 4: ITPP treated animals).
Quantification of the gel assays indicated a reduction by a factor of 10,000 of the amount of VEGF mRNAs detected in the tumors of animals having received ITPP, at day 9 and then, while differences remain between treated and untreated animals, they tend to decrease.

[6] = Right shift of P50 in piglets, ITPP injected intravenously; assay type: in vivo
Protocol: ITPP was also injected intravenously (IV) in piglets.
as §2

hemoglobin [7] = biological target: T1, hemoglobin (Homo sapiens, UniProt P68871); conditions: relative to DPG; cited from earlier work
T1 sequence (P69905 2-142 partner limits assumed): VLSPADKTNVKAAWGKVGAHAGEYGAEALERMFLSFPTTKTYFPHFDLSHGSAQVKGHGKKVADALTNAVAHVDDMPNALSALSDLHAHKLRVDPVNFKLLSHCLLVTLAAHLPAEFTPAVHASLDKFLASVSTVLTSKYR
T1 sequence (P68871 2-147 limits assumed): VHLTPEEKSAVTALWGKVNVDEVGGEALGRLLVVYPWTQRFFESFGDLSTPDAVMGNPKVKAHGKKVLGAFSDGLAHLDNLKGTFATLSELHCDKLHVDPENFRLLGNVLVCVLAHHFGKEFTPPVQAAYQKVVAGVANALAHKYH

hemoglobin [8] = biological target: T1, hemoglobin; conditions: pH 7.4, 37 degrees C.; cited from earlier work

O=P1(O)OC2C3OP(=O)(O)OP(=O)(O)OC3C3OP(=O)(O)OP(=O)(O)OC3C2OP(=O)(O)O1 (stereo not drawn) [ITPP, inositol-tripyrophosphate]
P50 values after 12 days ([1]; ingestion stopped on day 4): back to control values
right shifts of P50 ([1]; mice, oral application, 27 mM): up to 31%
time lag before the maximum shift is attained ([1]; mice, oral, 27 mM): approximately 48 hrs
lysis of the red blood cells (whole blood; in vitro): never occurred
P50 shifts to higher PO2 (whole blood; with murine whole blood): up to 40%
basal value of the red blood cell count ([2]; 12 days after ingestion of ITPP, once ΔP50 becomes 0%): restored
toxicity ([2]; administered orally): little or no toxicity
number of white blood cells ([2]; blood from mice in different groups, day 0, 7 and 11): no significant differences
number of red blood cells ([2]; mice having ingested ITPP, blood counts day 0, 7 and 11): reduced
acceptance / harm to the animals ([2]; mice, ITPP-solution 20g/L (27mM) in drinking water for 4 days): neither rejected by the mice, nor harmful to the animals
level of ions, such as sodium and potassium and calcium ([2]; mice, after oral application, serum, day 0, 7 and 11): normal
concentration well tolerated by mice ([3]; intraperitoneal injection): ≤ 150000 µM
level of ions, such as sodium, potassium and calcium ([3]; mice, after ip injection): normal
P50 values of circulating red blood cells shifted [4]: up to 23%
P50 shifts to higher PO2 (murine hemoglobin): up to 250%
Ca^2+ conc. ([5]; 10 min after completion of injection (before injection 2.38)): 1.73 mmol/L
Ca^2+ conc. ([5]; 24 hrs after injection (before injection 2.38)): 2.36 mmol/L
level of calcium ([5]; piglets, IV, CaCl2 (equimolar to ITPP) injected with ITPP): remained constant
level of the other ions sodium and potassium ([5]; piglets, after IV injection of ITPP): unchanged
reduction of the amount of VEGF mRNAs detected in the tumors (VEGF mRNA): 10,000 factor
P50 shift ([6]; IV, CaCl2 solution (equimolar to ITPP) injected with the ITPP solution): approximately 20 % of the basal value
shift of P50 ([6]; intravenous): right shift of P50 was observed

O=P(O)(O)O[C@H]1[C@H](OP(=O)(O)O)[C@@H](OP(=O)(O)O)[C@H](OP(=O)(O)O)[C@@H](OP(=O)(O)O)[C@H]1OP(=O)(O)O [IHP, inositol hexaphosphate]
higher affinity to hemoglobin than DPG (hemoglobin [7]): 1000 fold
P50 of hemoglobin (hemoglobin [8]): ≤ 96.4 mm, Hg
